Assay results as given in patent publication US7368126B2, “Controlled release depot formulations” (priority 2002, dated 2008).
Counter-ions that a name gives are not always drawn.

Assays:
Solubility in water = format: physicochemical; details: DI water
[1] = cited from earlier work

| SMILES | concentration in deionized water at saturation (Solubility in water) [µg/mL] | reported solubility in water [1] |
| --- | --- | --- |
| CCCCN1CCCCC1C(=O)Nc1c(C)cccc1C (centres unmarked) [Bupivacaine hydrochloride] | 40000 |  |
| CC(=O)OCC(COC(C)=O)OC(C)=O [triacetin] |  | 7.17 grams in 100 ml of water |
